Data from patent publication US20240287138A1, “CYCLIC PEPTIDES FOR INHIBITING TNF RECEPTOR 1 ACTIVITY” (Merck Sharp & Dohme LLC, priority 2023, published 2024).
pIC50, pKd: −log10 of the molar value. Numbered stars: 1 amine (or outer) side, 2 acyl side, 3 side chain; on linkers, the order of the positions; unused ones are H or OH. Bridge positions count the residues as written; N and C are the ends. Square brackets hold non-standard residues; d marks the D form. Peptide text beside a SMILES is read from it. Trp(βS-Me,7-OMe) = COc1cccc2c([C@H](C)[C@H](N)C(=O)O)c[nH]c12; Trp(7-CN) = N#Cc1cccc2c(C[C@H](N)C(=O)O)c[nH]c12; Trp(7-Cl) = N[C@@H](Cc1c[nH]c2c(Cl)cccc12)C(=O)O; Phe(4-CONH2) = NC(=O)c1ccc(C[C@H](N)C(=O)O)cc1; Phe(4-COOH) = N[C@@H](Cc1ccc(C(=O)O)cc1)C(=O)O; 4Pal(3S-Me) = C[C@@H](c1ccncc1)[C@H](N)C(=O)O; Trp(7-aza) = N[C@@H](Cc1c[nH]c2ncccc12)C(=O)O; X1 = O=C([C@@H]1CC[C@H](N[*:1])C1)[*:2]; X68 = O=C([C@@H]1CSCCN1[*:1])[*:2]; Pip(4-aza) = O=C(O)[C@@H]1CNCCN1; 4Pal = N[C@@H](Cc1ccncc1)C(=O)O; NMeE = CN[C@@H](CCC(=O)O)C(=O)O; dHyp = O=C(O)[C@H]1C[C@H](O)CN1; X7 = CC[C@@H](C(=O)[*:1])[*:2]; Ahp(2) = CCCCC[C@H](N)C(=O)O; αMeS = C[C@](N)(CO)C(=O)O; Nle = CCCC[C@H](N)C(=O)O; dNMeA = CN[C@H](C)C(=O)O; Sar = CNCC(=O)O

Target: T1, human soluble TNFR1 (sTNFR1) (Homo sapiens, UniProt P19438)
T1 construct: made in house; host or cells: Sf21 (baculovirus)
T1 sequence (P19438 with tags, fused parts or gaps): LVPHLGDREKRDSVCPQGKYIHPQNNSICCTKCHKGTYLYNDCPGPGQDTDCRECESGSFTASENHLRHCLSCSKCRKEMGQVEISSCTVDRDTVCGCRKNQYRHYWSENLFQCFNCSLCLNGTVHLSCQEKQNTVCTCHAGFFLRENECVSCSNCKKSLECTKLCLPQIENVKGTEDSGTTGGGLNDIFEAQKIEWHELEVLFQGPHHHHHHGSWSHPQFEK
Assay: Human sTNFR1-peptide displacement assay (LanthaScreen Eu TR-FRET binding assay)
Method: A. Procedure for Human sTNFR1-Peptide Displacement Assay
The affinity was determined using LanthaScreen Eu-based time-resolved fluorescence resonance energy transfer (TR-FRET)-based binding assay.
A TR-FRET assay measuring the displacement of biotinylated peptide SEQ ID NO. 1 from human soluble TNFR1 (sTNFR1) in a pre-formed complex by a macrocyclic peptide yields the affinity (Kd^app) of the cyclic peptide for sTNFR1. The reagents for the assay include: the C′-terminally 6His-tagged sTNFR1 (residues 1-211) protein purified from a Sf21 baculovirus expression system, the biotin-tagged B0372 peptide described in section “Preparation of Final Compounds”, part E, the LanthaScreen™ anti-His Tag Europium donor (Life Technologies Corporation (San Diego, CA), cat. #PV5597), and a streptavidin-conjugate Alexa Fluor™ 647 acceptor (Invitrogen (Waltham, MA), cat. #S32357). Time-resolved TR-FRET is achieved when sTNFR1 is bound to biotinylated peptide SEQ ID NO. 1 through coupling of the donor and acceptor FRET pair.
100 nM biotinylated peptide SEQ ID NO. […] 100 nM biotinylated peptide SEQ ID NO. 1 was chosen as it reflects the ˜Kd for this complex. After 30 min at ambient temperature, each test peptide (2 mM stock in DMSO) is titrated in a 20 point, ˜3-fold discrete dose-response using an acoustic-dispense liquid handler. Specifically, 80 nL of peptide/DMSO is transferred into a ProxiPlate-384 Plus 384-well assay plate (PerkinElmer, cat. #6008289). To this plate, 8 μL of the previously formed sTNFR 1-biotinylated peptide SEQ ID NO. 1 complex is added and allowed to reach binding equilibrium with the test peptide at ambient temperature for 90 min.
The TR-FRET signal is measured with the following EnVision® settings: excitation laser at 337 nm; emission1=615 nm, emission2=665 nm, LANCE/DELFIA dichroic mirror, delay time=[…]. The signal of each well is determined as the ratio of the emission at 665 nm to that at 615 nm. Percent displacement is determined by normalization to control wells containing DMSO (0%) or a saturating concentration of a displaceable peptide (100%). The %-effect as a function of peptide concentration is fit to a five-parameter logistic fit based on the Morrison equation to account for tight binding kinetics.

SMILES	pIC50	pKd
CCCC[C@@H]1NC(=O)[C@H](CC)SC[C@@H](C(N)=O)NC(=O)[C@H]([C@@H](C)c2c[nH]c3c(OC)cccc23)NC(=O)CN(C)C(=O)[C@H](Cc2ccc(O)cc2)NC(=O)[C@H](Cc2ccc(C(N)=O)cc2)NC(=O)[C@](C)(CO)NC(=O)[C@H](Cc2c[nH]c3c(Cl)cccc23)NC(=O)[C@H](Cc2ccncc2)NC(=O)[C@H](CC(N)=O)NC(=O)[C@H](CCC(=O)O)N(C)C(=O)[C@H](Cc2c[nH]c3ccccc23)NC(=O)[C@@H]2CSCCN2C(=O)[C@H](Cc2ccncc2)NC1=O [SEQ ID NO. 246] ([Nle][4Pal][X68]W[NMeE]N[4Pal][Trp(7-Cl)][αMeS][Phe(4-CONH2)]Y[Sar][Trp(βS-Me,7-OMe)]C-NH2; linker N-14 via X7)	8.94	
CCCC[C@@H]1NC(=O)CSC[C@@H](C(=O)NCC(=O)N[C@@H](CCC(=O)O)C(=O)N[C@@H](CCC(=O)O)C(N)=O)NC(=O)[C@H]([C@@H](C)c2c[nH]c3c(OC)cccc23)NC(=O)CN(C)C(=O)[C@H](Cc2ccc(O)cc2)NC(=O)[C@H](Cc2ccc(C(=O)O)cc2)NC(=O)[C@](C)(CO)NC(=O)[C@H](Cc2c[nH]c3c(Cl)cccc23)NC(=O)[C@H](Cc2ccncc2)NC(=O)[C@H](CC(N)=O)NC(=O)[C@H](CCC(=O)O)N(C)C(=O)[C@H](Cc2c[nH]c3ncccc23)NC(=O)[C@@H]2CNCCN2C(=O)[C@H](Cc2ccncc2)NC1=O [SEQ ID NO. 255] ({CH2CO}-[Nle][4Pal][Pip(4-aza)][Trp(7-aza)][NMeE]N[4Pal][Trp(7-Cl)][αMeS][Phe(4-COOH)]Y[Sar][Trp(βS-Me,7-OMe)]CGEE-NH2; thioether N-14)	9.15	9.00
CCCC[C@@H]1NC(=O)CSC[C@@H](C(N)=O)NC(=O)[C@H]([C@@H](C)c2c[nH]c3c(OC)cccc23)NC(=O)CN(C)C(=O)[C@H](Cc2ccc(O)cc2)NC(=O)[C@H](Cc2ccc(C(=O)O)cc2)NC(=O)[C@](C)(CO)NC(=O)[C@H](Cc2c[nH]c3c(Cl)cccc23)NC(=O)[C@H](Cc2ccncc2)NC(=O)[C@H](CC(N)=O)NC(=O)[C@H](CCC(=O)O)N(C)C(=O)[C@H](Cc2c[nH]c3ncccc23)NC(=O)[C@@H]2CNCCN2C(=O)[C@H](Cc2c[nH]cn2)NC1=O [SEQ ID NO. 264] ({CH2CO}-[Nle]H[Pip(4-aza)][Trp(7-aza)][NMeE]N[4Pal][Trp(7-Cl)][αMeS][Phe(4-COOH)]Y[Sar][Trp(βS-Me,7-OMe)]C-NH2; thioether N-14)	8.83	
CCCC[C@@H]1NC(=O)CSC[C@@H](C(N)=O)NC(=O)[C@H]([C@@H](C)c2c[nH]c3c(OC)cccc23)NC(=O)[C@@H](C)N(C)C(=O)[C@H](Cc2ccc(O)cc2)NC(=O)[C@H](Cc2ccc(C(=O)O)cc2)NC(=O)[C@](C)(CO)NC(=O)[C@H](Cc2c[nH]c3c(Cl)cccc23)NC(=O)[C@H](Cc2ccncc2)NC(=O)[C@H](CC(N)=O)NC(=O)[C@H]2CCCN2C(=O)[C@H](Cc2c[nH]c3ccccc23)NC(=O)[C@@H]2CNCCN2C(=O)[C@H](Cc2ccncc2)NC1=O [SEQ ID NO. 276] ({CH2CO}-[Nle][4Pal][Pip(4-aza)]W[dP]N[4Pal][Trp(7-Cl)][αMeS][Phe(4-COOH)]Y[dNMeA][Trp(βS-Me,7-OMe)]C-NH2; thioether N-14)	8.62	
CCCCC[C@@H]1NC(=O)[C@@H]2CC[C@@H](C2)NC(=O)[C@H]([C@@H](C)c2c[nH]c3c(OC)cccc23)NC(=O)CN(C)C(=O)[C@H](Cc2ccc(C(N)=O)cc2)NC(=O)[C@H](Cc2ccc(C(N)=O)cc2)NC(=O)[C@](C)(CO)NC(=O)[C@H](Cc2c[nH]c3c(C#N)cccc23)NC(=O)[C@H](Cc2ccc(C(=O)O)cc2)NC(=O)[C@H](CC(N)=O)NC(=O)[C@H]2C[C@H](O)CN2C(=O)[C@H](Cc2c[nH]c3ccccc23)NC(=O)[C@H](CCC(=O)O)NC(=O)[C@H]([C@@H](C)c2ccncc2)NC1=O [SEQ ID NO. 280] (cyclo([Ahp(2)][4Pal(3S-Me)]EW[dHyp]N[Phe(4-COOH)][Trp(7-CN)][αMeS][Phe(4-CONH2)][Phe(4-CONH2)][Sar][Trp(βS-Me,7-OMe)][X1]))		9.60
